# Test results as given in patent US10131652B2, “Pyrimidinyloxy benzene derivatives as herbicides” (E. I. DU PONT DE NEMOURS AND COMPANY, priority 2014, dated 2018).
# How the values were obtained:
# Assay type in all cases: in vivo
# [1] = system: Italian ryegrass (Lolium multiflorum); assay: Test B pre-/postemergence plant response
# Outline: (§1)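 Seeds in loam–sand blend given preemergence soil spray; separately, plants at one- to two-leaf stage (2–10 cm) sprayed postemergence, compounds in non-phytotoxic solvent with surfactant. Injury rated visually versus untreated controls after ~10 days in greenhouse, 0 (no effect) to 100 (complete control).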
# [2] = system: barnyardgrass (Echinochloa crus-galli); assay: Test B pre-/postemergence plant response
# Outline: as §1
# corn (Zea mays) = assay: Test B pre-/postemergence plant response
# Outline: as §1
# [3] = system: giant foxtail (Setaria faberii); assay: Test B pre-/postemergence plant response
# Outline: as §1
# kochia (Kochia scoparia) = assay: Test B pre-/postemergence plant response
# Outline: as §1
# [4] = system: pigweed (Amaranthus retroflexus); assay: Test B pre-/postemergence plant response
# Outline: as §1
# [5] = system: ragweed (common ragweed, Ambrosia elatior); assay: Test B pre-/postemergence plant response
# Outline: as §1
# [6] = system: wheat (Triticum aestivum); assay: Test B pre-/postemergence plant response
# Outline: as §1
# [7] = system: blackgrass (Alopecurus myosuroides); assay: Test B postemergence plant response
# Outline: (§2)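 Weeds grown in loam soil/sand pots were sprayed postemergence at 2 to 10 cm height, one- to two-leaf stage. After approximately 10 days in greenhouse, injury was rated visually against untreated controls on a 0 (no effect) to 100 (complete control) scale; dash means no test result.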
# [8] = system: galium (catchweed bedstraw, Galium aparine); assay: Test B postemergence plant response
# Outline: as §2
# [9] = system: barnyardgrass (Echinochloa crus-galli); assay: Test C flooded paddy test plant response; settings: Flood, 250 g ai/ha; scale of 0 to 100 where 0 is no effect and 100 is complete control; 13 to 15 days
# Outline: (§3)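 Plants grown to the 2-leaf stage; pots flooded to 3 cm above soil, test compounds applied directly to paddy water, depth maintained throughout. Greenhouse for 13 to 15 days, then visual rating versus controls on a 0–100 scale (0 no effect, 100 complete control).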
# [10] = system: ducksalad (Heteranthera limosa); assay: Test C flooded paddy test plant response; settings: Flood, 250 g ai/ha; scale of 0 to 100 where 0 is no effect and 100 is complete control; 13 to 15 days
# Outline: as §3
# rice (Oryza sativa) = assay: Test C flooded paddy test plant response; settings: Flood, 250 g ai/ha; scale of 0 to 100 where 0 is no effect and 100 is complete control; 13 to 15 days
# Outline: as §3
# [11] = system: small-flower umbrella sedge (Cyperus difformis); assay: Test C flooded paddy test plant response; settings: Flood, 250 g ai/ha; scale of 0 to 100 where 0 is no effect and 100 is complete control; 13 to 15 days
# Outline: as §3
# [12] = 31 g ai/ha, Preemergence, 0 to 100 scale where 0 is no effect and 100 is complete control
# [13] = 125 g ai/ha, postemergence, 0 to 100 scale, 0 no effect, 100 complete control
# [14] = Postemergence, 31 g ai/ha, 0 to 100 scale (0 no effect, 100 complete control)
# [15] = Preemergence, 125 g ai/ha, 0 to 100 scale (0 no effect, 100 complete control)
SMILES,"Plant response rating, Ryegrass, Italian [1, 12]","Plant response rating, Ryegrass, Italian [1, 13]","Plant response rating, Ryegrass, Italian [1, 14]","Ryegrass, Italian plant response rating [1, 15]","Plant response rating, Barnyardgrass [2, 12]","Plant response rating, Barnyardgrass [2, 13]","Plant response rating, Barnyardgrass [2, 14]","Barnyardgrass plant response rating [2, 15]","Plant response rating, Corn (corn (Zea mays); [13])","Plant response rating, Corn (corn (Zea mays); [14])","Plant response rating, Foxtail, Giant [3, 12]","Plant response rating, Foxtail, Giant [3, 13]","Plant response rating, Foxtail, Giant [3, 14]","Foxtail, Giant plant response rating [3, 15]","Plant response rating, Kochia (kochia (Kochia scoparia); [12])","Plant response rating, Kochia (kochia (Kochia scoparia); [13])","Plant response rating, Kochia (kochia (Kochia scoparia); [14])",Kochia plant response rating (kochia (Kochia scoparia); [15]),"Plant response rating, Pigweed [4, 12]","Plant response rating, Pigweed [4, 13]",further results
N#Cc1cc(-c2c(F)cccc2Oc2ncc(Cl)cn2)no1 [Compound 222],0,0,0,0,0,0,0,0,30,0,0,0,0,0,0,30,20,0,20,100,"Plant response rating, Pigweed [4, 14]: 30; Pigweed plant response rating [4, 15]: 90; Plant response rating, Ragweed [5, 12]: 0; Plant response rating, Ragweed [5, 13]: 20; Plant response rating, Ragweed [5, 14]: 0; Ragweed plant response rating [5, 15]: 0; Plant response rating, Wheat [6, 13]: 20; Plant response rating, Wheat [6, 14]: 0; Plant response rating, Blackgrass [7, 13]: 10; Plant response rating, Blackgrass [7, 14]: 0; Plant response rating, Galium [8, 13]: 90; Plant response rating, Galium [8, 14]: 30; Barnyardgrass plant response rating [9]: 0; Ducksalad plant response rating [10]: 30; Rice plant response rating (rice (Oryza sativa)): 0; Sedge, Umbrella plant response rating [11]: 0"
N#Cc1cc(-c2ccccc2Oc2ncc(Cl)cn2)on1 [Compound 223],0,0,0,0,0,10,0,0,0,0,0,10,0,0,0,10,0,0,0,60,"Plant response rating, Pigweed [4, 14]: 20; Pigweed plant response rating [4, 15]: 10; Plant response rating, Ragweed [5, 12]: 0; Plant response rating, Ragweed [5, 13]: 10; Plant response rating, Ragweed [5, 14]: 0; Ragweed plant response rating [5, 15]: 0; Plant response rating, Wheat [6, 13]: 0; Plant response rating, Wheat [6, 14]: 0; Plant response rating, Blackgrass [7, 13]: 0; Plant response rating, Blackgrass [7, 14]: 0; Plant response rating, Galium [8, 13]: 50; Plant response rating, Galium [8, 14]: 30; Barnyardgrass plant response rating [9]: 0; Ducksalad plant response rating [10]: 65; Rice plant response rating (rice (Oryza sativa)): 0; Sedge, Umbrella plant response rating [11]: 70"
CCOC(=O)c1cc(-c2ccccc2Oc2ncc(Cl)cn2)on1 [Compound 225],0,0,0,0,0,0,0,0,0,0,0,0,0,0,0,0,0,0,0,0,"Plant response rating, Pigweed [4, 14]: 0; Pigweed plant response rating [4, 15]: 0; Plant response rating, Ragweed [5, 12]: 0; Plant response rating, Ragweed [5, 13]: 0; Plant response rating, Ragweed [5, 14]: 0; Ragweed plant response rating [5, 15]: 0; Plant response rating, Wheat [6, 13]: 0; Plant response rating, Wheat [6, 14]: 0; Plant response rating, Blackgrass [7, 13]: 0; Plant response rating, Blackgrass [7, 14]: 0; Plant response rating, Galium [8, 13]: 0; Plant response rating, Galium [8, 14]: 0; Barnyardgrass plant response rating [9]: 0; Ducksalad plant response rating [10]: 0; Rice plant response rating (rice (Oryza sativa)): 0; Sedge, Umbrella plant response rating [11]: 0"
FC(F)(F)COc1cc(-c2ccccc2Oc2ncc(Cl)cn2)ncn1 [Compound 227],0,30,0,10,10,60,10,50,20,10,40,60,10,90,0,80,40,50,40,90,"Plant response rating, Pigweed [4, 14]: 60; Pigweed plant response rating [4, 15]: 80; Plant response rating, Ragweed [5, 12]: 0; Plant response rating, Ragweed [5, 13]: 30; Plant response rating, Ragweed [5, 14]: 10; Ragweed plant response rating [5, 15]: 0; Plant response rating, Wheat [6, 13]: 20; Plant response rating, Wheat [6, 14]: 0; Plant response rating, Blackgrass [7, 13]: 70; Plant response rating, Blackgrass [7, 14]: 10; Plant response rating, Galium [8, 13]: 80; Plant response rating, Galium [8, 14]: 70; Barnyardgrass plant response rating [9]: 0; Ducksalad plant response rating [10]: 98; Rice plant response rating (rice (Oryza sativa)): 0; Sedge, Umbrella plant response rating [11]: 85"
Clc1cnc(Oc2ccccc2-c2ccsc2)nc1 [Compound 231],0,0,0,0,0,10,0,10,0,0,0,10,0,10,0,40,20,0,0,40,"Plant response rating, Pigweed [4, 14]: 20; Pigweed plant response rating [4, 15]: 20; Plant response rating, Ragweed [5, 12]: 0; Plant response rating, Ragweed [5, 13]: 0; Plant response rating, Ragweed [5, 14]: 0; Ragweed plant response rating [5, 15]: 0; Plant response rating, Wheat [6, 13]: 0; Plant response rating, Wheat [6, 14]: 0; Plant response rating, Blackgrass [7, 13]: 0; Plant response rating, Blackgrass [7, 14]: 0; Plant response rating, Galium [8, 13]: 20; Plant response rating, Galium [8, 14]: 0; Barnyardgrass plant response rating [9]: 0; Ducksalad plant response rating [10]: 65; Rice plant response rating (rice (Oryza sativa)): 0; Sedge, Umbrella plant response rating [11]: 70"
